From patent US20070082068A1, “Il-8 production promoters and use thereof” (priority 2003, published 2007)

Experiments:
[1] = system: IL-8 production by Caco-2 cells; assay: Effect of promoting IL-8 production by Caco-2 cells (sandwich ELISA of culture supernatants); format: cell-based, human; settings: compounds at final concentration 100 μg/ml; 6-hour culture, then 12 hours in additive-free media; differentiated Caco-2 cells; significant difference P<0.01
Description: Caco-2 cells (human colon cancer-derived cell line; American Type Culture Collection, Rockville, Md., U.S.A.) were used as small-intestinal epithelial cell models to evaluate the influence of peppermint, dokudami (houttuynia herb), and licorice extracts on IL-8 production by the cells.
(§1) The Caco-2 cells were subcultured in 24-well plates. The resulting cells were cultured at 37° C. for 14 days under 5% CO2 conditions and thereby differentiated into small-intestinal epithelioid cells. Culture media used were DMEM media (SIGMA Corp.) containing 10% fetal calf serum, 1% non essential amino acid solution, 2% glutamine, 100 U/ml penicillin, and 100 μg/ml streptomycin. A peppermint extract obtained in Example 1, a dokudami (houttuynia herb) extract obtained in Example 2, and a licorice extract obtained in Example 3 were added at each final concentration of 100 μg/ml to the media, and the cells were cultured therein. After 6-hour culture, the media were replaced with additive-free media, followed by additional culture for 12 hours. The resulting culture supernatants were subjected to sandwich ELISA assay (Eckmann, L., et al., Gastroenterology, 105, 1689-1697, 1993) to quantify the amount of IL-8 in the culture supernatants.
Caco-2 cells (human colon cancer-derived cell line; American Type Culture Collection, Rockville, Md., U.S.A.) were used as small-intestinal epithelial cell models to evaluate the influence of α-humulene, α-pinene, β-pinene and L-menthol on IL-8 production by the cells.
as §1, with “5% Co2” for “5% CO2”, “streptomycin. α-humulene (SIGMA Corp.), α-pinene (SIGMA Corp.), β-pinene (SIGMA Corp.),” for “streptomycin. A peppermint extract obtained in Example 1, a dokudami (houttuynia herb) extract obtained in Example 2,”, “and L-menthol (SIGMA Corp.)” for “and a licorice extract obtained in Example 3”, “media was” for “media were”, “assay” for “assay (Eckmann, L., et al., Gastroenterology, 105, 1689-1697, 1993)”

Caco-2 cells = assay: Evaluation of cytotoxicity by LDH (lactate dehydrogenase) assay; format: cell-based; settings: 100 μg/ml; 24 hours; differentiated Caco-2 cells
Description: The cytotoxicity of peppermint, dokudami (houttuynia herb), licorice extracts was evaluated with Caco-2 cells. The Caco-2 cells differentiated into small-intestinal epithelioid cells in the same way as in Example 4 were cultured for 24 hours in media containing the peppermint, dokudami (houttuynia herb), and licorice extracts at each final concentration of 100 μg/ml. Subsequently, the media were removed, and the resulting cells were washed twice with PBS (phosphate buffered saline) (−) (Nissui Co., Ltd.). The cells were further supplemented with 700 μl of PBS (−) and left undisturbed at 37° C. for 2 hours. […] In summary, this assay is a method for quantifying cytotoxicity based on the activity of LDH released from dead cells by colormetrically determining formazan converted from a tetrazolium salt serving as a coloring reagent. The rate of free LDH (%) was calculated according to the equation below by using the LDH concentration in the collected PBS (−) as the amount of free LDH and the LDH concentration in the cell lysate as the amount of intracellular LDH. […]
The cytotoxicity of α-humulene was evaluated with Caco-2 cells. […] The rate of free LDH (6) was calculated according to the equation below by using the LDH concentration in the collected PBS (—) as the amount of free LDH and the LDH concentration in the cell lysate as the amount of intracellular LDH. […]

SMILES | IL-8 production by the Caco-2 cells (relative IL-8 concentration to a control, FIG. 2) [1] | Cytotoxicity (rate of free LDH vs control, FIG. 4) (Caco-2 cells)
CC(C)[C@@H]1CC[C@@H](C)C[C@H]1O [L-menthol] | remarkably promoted IL-8 production | –
C/C1=C\CC/C(C)=C/CC(C)(C)/C=C/C1 [α-humulene] | remarkably promoted IL-8 production | no cytotoxicity
CC1=CC[C@H]2C[C@@H]1C2(C)C [α-pinene] | remarkably promoted IL-8 production | –
C=C1CC[C@@H]2C[C@H]1C2(C)C [β-pinene] | remarkably promoted IL-8 production | –
